Source: BigSolDB 2.1

O=C1NS(=O)(=O)c2ccccc21
solubility (mole fraction)
Conditions | 278.15 K | 283.15 K | 288.15 K | 293.15 K | 298.15 K | 303.15 K | 308.15 K | 313.15 K | 318.15 K | 323.15 K
in acetone | 0.0222 | 0.025 | 0.0286 | 0.0326 | 0.0374 | 0.0422 | 0.0484 | 0.0554 | 0.0635 | 0.071
in ethanol | 0.00486 | 0.00578 | 0.00686 | 0.00814 | 0.00964 | 0.0114 | 0.0134 | 0.0158 | 0.019 | 0.0231
in ethyl acetate | 0.00883 | 0.0111 | 0.0139 | 0.0169 | 0.0203 | 0.0241 | 0.0287 | 0.0342 | 0.0401 | 0.0474
in isobutanol | 0.00181 | 0.00222 | 0.00279 | 0.00355 | 0.00433 | 0.00538 | 0.00654 | 0.00791 | 0.00953 | 0.0114
in isopropanol | 0.00382 | 0.0045 | 0.00532 | 0.00632 | 0.00752 | 0.00895 | 0.0106 | 0.0126 | 0.015 | 0.0181
in methanol | 0.00542 | 0.00665 | 0.00806 | 0.00969 | 0.0115 | 0.0135 | 0.0157 | 0.0185 | 0.0217 | 0.0257
in n-propanol | 0.00311 | 0.00369 | 0.00439 | 0.00526 | 0.00621 | 0.00756 | 0.00902 | 0.0109 | 0.0129 | 0.0157
